According to the supplement of paper PMC10307832:

How the values were obtained:
Assay in all cases: relative viability (nuclei count vs DMSO), 5 days (fraction); higher = more cells survive
[1] = tested on: SK-LU-1
Procedure, shortened: (§1)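 Nuclei were stained with Hoechst during a one-step fixation (final 0.05% Triton X-100, 1% formaldehyde, 1 ug/ml Hoechst) carried out 5 days after dosing, then counted on 4× images. The cells, lung cancer lines in 1536-well plates, had been dosed by pin tool the day after seeding with one drug alone or a fixed anchor-drug dose plus five library-drug doses (not always all listed) in √10 steps. Relative viability is the nuclei count in treated wells divided by that in vehicle wells, and each value is the median of duplicate plates.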

[2] = tested on: NCI-H2405
Procedure, shortened: as §1

[3] = tested on: NCI-H1437
Procedure, shortened: as §1

[4] = tested on: LCLC-103H
Procedure, shortened: as §1

[5] = tested on: NCI-H647
Procedure, shortened: as §1

[6] = tested on: LCLC-97TM1
Procedure, shortened: as §1

[7] = tested on: RERF-LC-KJ
Procedure, shortened: as §1

[8] = tested on: BEN
Procedure, shortened: as §1

[9] = tested on: LXF-289
Procedure, shortened: as §1

[10] = tested on: CAL-12T
Procedure, shortened: as §1

[11] = tested on: NCI-H1944
Procedure, shortened: as §1

`O=c1cc(-c2cccc3c2Sc2ccccc2S3)oc(N2CCOCC2)c1` + CS(=O)(=O)N1CCN(Cc2cc3nc(-c4cccc5[nH]ncc45)nc(N4CCOCC4)c3s2)CC1 [Pictilisib] (partner 1 µM) showed a relative viability ([1]; first compound 0.08 µM) of 0.616, a relative viability ([1]; first compound 0.253 µM) of 0.515 and a relative viability ([1]; first compound 0.8 µM) of 0.594. For the same compound, the relative viability ([1]; first compound 2.53 µM) was 0.541, the relative viability ([1]; first compound 8 µM) was 0.596 and the relative viability ([2]; first compound 0.08 µM) was 0.454. The relative viability ([2]; first compound 0.253 µM) was 0.386, the relative viability ([2]; first compound 0.8 µM) was 0.333 and the relative viability ([2]; first compound 2.53 µM) was 0.491. For the same compound, the relative viability ([2]; first compound 8 µM) was 0.492, the relative viability ([3]; first compound 0.08 µM) was 0.464 and the relative viability ([3]; first compound 0.253 µM) was 0.534. The relative viability ([3]; first compound 0.8 µM) was 0.395, the relative viability ([3]; first compound 2.53 µM) was 0.373 and the relative viability ([3]; first compound 8 µM) was 0.37. The relative viability ([4]; first compound 0.08 µM) was 0.63, the relative viability ([4]; first compound 0.253 µM) was 0.531 and the relative viability ([4]; first compound 0.8 µM) was 0.505. It also gave a relative viability ([4]; first compound 2.53 µM) of 0.489, a relative viability ([4]; first compound 8 µM) of 0.616 and a relative viability ([5]; first compound 0.08 µM) of 0.341. For the same compound, the relative viability ([5]; first compound 0.253 µM) was 0.499, the relative viability ([5]; first compound 0.8 µM) was 0.365 and the relative viability ([5]; first compound 8 µM) was 0.603. The relative viability ([6]; first compound 0.08 µM) was 0.166, the relative viability ([6]; first compound 0.253 µM) was 0.174 and the relative viability ([6]; first compound 0.8 µM) was 0.208. For the same compound, the relative viability ([6]; first compound 2.53 µM) was 0.158, the relative viability ([6]; first compound 8 µM) was 0.184 and the relative viability ([7]; first compound 0.08 µM) was 0.43. For the same compound, the relative viability ([7]; first compound 0.253 µM) was 0.608, the relative viability ([7]; first compound 0.8 µM) was 0.622 and the relative viability ([7]; first compound 2.53 µM) was 0.571. The relative viability ([7]; first compound 8 µM) was 0.521, the relative viability ([8]; first compound 0.08 µM) was 0.533 and the relative viability ([8]; first compound 0.253 µM) was 0.671. The relative viability ([8]; first compound 0.8 µM) was 0.531, the relative viability ([8]; first compound 2.53 µM) was 0.591 and the relative viability ([8]; first compound 8 µM) was 0.686. The relative viability ([9]; first compound 0.08 µM) was 0.777, the relative viability ([9]; first compound 0.253 µM) was 0.791 and the relative viability ([9]; first compound 0.8 µM) was 0.896. It also gave a relative viability ([9]; first compound 2.53 µM) of 0.747, a relative viability ([9]; first compound 8 µM) of 0.849 and a relative viability ([10]; first compound 0.08 µM) of 0.31. It also gave a relative viability ([10]; first compound 0.253 µM) of 0.482, a relative viability ([10]; first compound 0.8 µM) of 0.418 and a relative viability ([10]; first compound 2.53 µM) of 0.32. For the same compound, the relative viability ([10]; first compound 8 µM) was 0.397, the relative viability ([11]; first compound 0.08 µM) was 0.324 and the relative viability ([11]; first compound 0.253 µM) was 0.352. It also gave a relative viability ([11]; first compound 0.8 µM) of 0.29 and a relative viability ([11]; first compound 8 µM) of 0.346.
